In patent US4103010A, “(3-Piperazinocarbonylimino-quanidino)-isoxazoles” (Aron S.A.R.L., priority 1975, dated 1978):
Like-named read-outs stand apart in the source and are kept apart here.

Tests used:
Doca rats = experiment: decrease of the systolic blood pressure in Doca rats; format: in vivo; settings: Rattus norvegicus, oral, 2 × 3 mg/kg, with respect to original value, read-out: percent decrease of the systolic blood pressure
Procedure: (§1) The above results are confirmed by the results of an investigation of the action on the control of blood pressure. On oral administration of a dosage of 2 × 3 mg/kg of compound to Doca rats (Technique according to Green and co-workers, Am. J. Physiol., 1952, 170, p. 94) and to Grollman rats (Technique according to Grollman, Proc. Soc. Exp. Biol. Med., 1944, 57, p. 102), the percent decrease of the systolic blood pressure with respect to its original value is noted.

[1] = acute toxicity investigation in mice; settings: mouse, in vivo
[2] = test system: uptake of ^3 H noradrenalin by the synaptosomes of a rat hypothalamus homogenate; experiment: inhibition of the uptake of ^3 H noradrenalin by synaptosomes of a rat hypothalamus homogenate; format: biochemical; settings: with respect to the control test
Text: The compounds of the formula (I) are capable of modifying the accumulation of noradrenalin and particularly to inhibit the uptake of ^3 H noradrenalin by the synaptosomes of a rat hypothalamus homogenate prepared according to Banerjee, Snyder and Mechoulam (J. Pharmacol. Exp. Ther., 194, 1, 74, 1975). This inhibition of the uptake of ^3 H noradrenaline is a known property of various compounds having an activity on the central nervous system and/or on the sympathetic nervous system, particularly a hypotensive effect (J. Glowinski and J. Axelrod, effects of Drugs on the Disposition of ^3 H norepinephrine in the Rat Brain, Pharmacological Reviews, Vol. 18, No […], Part I, 1966).
They are expressed as percent inhibition of the uptake with respect to the control test.

Grollman rats = experiment: decrease of the systolic blood pressure in Grollman rats; format: in vivo, rat; settings: oral, 2 × 3 mg/kg, with respect to original value
Procedure: as §1

[3] = iv, read-out: LD50 (mg/kg) i.v.
[4] = po, read-out: LD50 (mg/kg) p.o.
[5] = ultimate molar concentration 5 × 10^-5 M
[6] = ultimate molar concentration 5 × 10^-6 M
[7] = ultimate molar concentration 5 × 10^-4 M

SMILES | inhibition in vivo at 3 mg/kg (Doca rats) [%] | LD50 [1, 3] [mg/kg] | LD50 [1, 4] [mg/kg] | inhibition % of the uptake of ^3 H noradrenalin [2, 5] [%] | inhibition % of the uptake of ^3 H noradrenalin [2, 6] [%] | inhibition % of the uptake of ^3 H noradrenalin [2, 7] [%] | percent decrease of the systolic blood pressure (Grollman rats) [%]
Cc1cc(N(C)C(=N)NC(=N)N)no1 [Example 7] | 15 | 70 | > 1000 | – | – | – | –
Cc1conc1NC(=N)NC(=N)N [Example 8] | – | – | – | 55 | 36 | – | –
Cc1cc(NC(=N)NC(=N)N2CCN(C)CC2)no1 [Example 19] | 20 | – | – | – | – | – | –
Cc1noc(C)c1NC(=N)NC(=N)N [Example 22] | – | > 100 | > 1500 | – | – | – | –
CCCCNC(=N)NC(=N)Nc1c(C)noc1C [Example 23] | – | – | > 750 | – | – | 51 | –
Cc1noc(C)c1NC(=N)NC(=N)N(C)C [Example 24] | – | – | > 750 | – | – | 28.4 | –
Cc1noc(NC(=N)NC(=N)N)c1C [Example 25] | 20 | 20 | 300 | 45.5 | – | – | –
CCCCNC(=N)NC(=N)Nc1onc(C)c1C [Example 26] | – | 35 | 250 | 39.6 | – | – | –
CCCN1CCN(C(=N)NC(=N)Nc2cc(C)on2)CC1 [Example 28] | 18 | – | 400 | 20 | – | 60.2 | 18
Cc1conc1NC(=N)NC(=N)N1CCN(C)CC1 [Example 29] | 15 | – | > 1000 | 65.8 | 30.8 | – | 15
Cc1cc(NC(=N)NC(=N)N2CCNCC2)no1 [Example 30] | 10 | – | > 1000 | – | – | 51 | –
